In article PMC9030254, “Target Hopping from Protein Kinases to PXR: Identification of Small-Molecule Protein Kinase Inhibitors as Selective Modulators of Pregnane X Receptor from TüKIC Library” (Cells, 2022):

Tests used:
Experiment in all cases: Kinase profiling
Assay type in all cases: biochemical
[1] = target: T1, IKKepsilon (Homo sapiens, UniProt Q14164)
T1 construct: purchased ProQinase (Freiburg, Germany)
T1 sequence (Q14164 1-716): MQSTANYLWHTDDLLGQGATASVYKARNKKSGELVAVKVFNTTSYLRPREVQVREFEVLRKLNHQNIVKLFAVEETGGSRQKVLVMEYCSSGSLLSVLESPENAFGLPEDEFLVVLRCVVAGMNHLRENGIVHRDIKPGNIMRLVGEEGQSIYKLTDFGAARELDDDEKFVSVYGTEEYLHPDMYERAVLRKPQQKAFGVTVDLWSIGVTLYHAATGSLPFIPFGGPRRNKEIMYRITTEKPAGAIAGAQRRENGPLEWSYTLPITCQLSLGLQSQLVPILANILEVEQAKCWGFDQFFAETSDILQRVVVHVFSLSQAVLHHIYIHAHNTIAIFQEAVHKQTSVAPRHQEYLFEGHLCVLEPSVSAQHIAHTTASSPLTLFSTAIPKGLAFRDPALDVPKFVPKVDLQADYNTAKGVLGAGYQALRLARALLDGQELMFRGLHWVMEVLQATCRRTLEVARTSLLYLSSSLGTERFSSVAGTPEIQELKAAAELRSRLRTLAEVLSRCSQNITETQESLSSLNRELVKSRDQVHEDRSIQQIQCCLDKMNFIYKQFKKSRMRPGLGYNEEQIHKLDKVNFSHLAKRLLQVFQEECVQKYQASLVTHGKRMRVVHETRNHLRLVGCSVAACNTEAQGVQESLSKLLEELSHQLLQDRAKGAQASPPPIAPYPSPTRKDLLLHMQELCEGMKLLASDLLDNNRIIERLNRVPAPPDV
Description: (§1) The analysis was performed by ProQinase (Freiburg, Germany).

[2] = target: T2, GRK4 (Homo sapiens, UniProt P32298)
T2 construct: purchased ProQinase (Freiburg, Germany)
Description: as §1

[3] = target: T3, MAP3K10 (Homo sapiens, UniProt Q02779)
T3 construct: purchased ProQinase (Freiburg, Germany)
Description: as §1

[4] = target: T4, PKMYT1 (Homo sapiens, UniProt Q99640)
T4 construct: purchased ProQinase (Freiburg, Germany)
T4 sequence (Q99640 1-499): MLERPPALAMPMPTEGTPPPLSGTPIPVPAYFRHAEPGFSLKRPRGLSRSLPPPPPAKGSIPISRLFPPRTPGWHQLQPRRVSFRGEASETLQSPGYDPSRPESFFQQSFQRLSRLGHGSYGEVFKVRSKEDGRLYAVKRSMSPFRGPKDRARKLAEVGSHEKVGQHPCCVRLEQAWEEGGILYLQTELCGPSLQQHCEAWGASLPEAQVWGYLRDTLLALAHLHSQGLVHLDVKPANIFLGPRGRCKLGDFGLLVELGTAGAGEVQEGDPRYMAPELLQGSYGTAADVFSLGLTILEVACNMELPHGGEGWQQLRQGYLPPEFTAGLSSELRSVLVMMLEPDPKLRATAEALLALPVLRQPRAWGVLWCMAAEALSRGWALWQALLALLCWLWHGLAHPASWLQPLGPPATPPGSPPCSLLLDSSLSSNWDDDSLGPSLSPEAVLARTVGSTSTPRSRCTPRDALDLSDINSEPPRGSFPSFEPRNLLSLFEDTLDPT
Description: as §1

[5] = target: T5, PAK6 (Homo sapiens, UniProt Q9NQU5)
T5 construct: purchased ProQinase (Freiburg, Germany)
Description: as §1

[6] = target: T6, SYK (Homo sapiens, UniProt P43405)
T6 construct: purchased ProQinase (Freiburg, Germany)
Description: as §1

[7] = target: T7, PKMzeta (Homo sapiens, UniProt Q05513)
T7 construct: PKMzeta; purchased ProQinase (Freiburg, Germany)
T7 sequence (Q05513 184-592 limits assumed): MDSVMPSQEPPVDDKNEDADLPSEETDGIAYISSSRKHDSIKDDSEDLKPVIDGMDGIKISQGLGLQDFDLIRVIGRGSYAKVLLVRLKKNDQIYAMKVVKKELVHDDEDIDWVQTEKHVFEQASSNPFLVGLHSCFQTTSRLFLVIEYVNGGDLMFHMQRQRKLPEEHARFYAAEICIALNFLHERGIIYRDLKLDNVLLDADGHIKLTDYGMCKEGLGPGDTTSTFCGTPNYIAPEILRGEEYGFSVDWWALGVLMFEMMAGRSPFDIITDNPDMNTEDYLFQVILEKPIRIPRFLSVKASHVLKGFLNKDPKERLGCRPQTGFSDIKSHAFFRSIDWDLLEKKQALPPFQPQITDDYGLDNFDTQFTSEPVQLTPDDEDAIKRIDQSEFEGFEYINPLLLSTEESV
Description: as §1

[8] = target: T8, DDR2 (Homo sapiens, UniProt Q16832)
T8 construct: purchased ProQinase (Freiburg, Germany)
T8 sequence (Q16832 22-855): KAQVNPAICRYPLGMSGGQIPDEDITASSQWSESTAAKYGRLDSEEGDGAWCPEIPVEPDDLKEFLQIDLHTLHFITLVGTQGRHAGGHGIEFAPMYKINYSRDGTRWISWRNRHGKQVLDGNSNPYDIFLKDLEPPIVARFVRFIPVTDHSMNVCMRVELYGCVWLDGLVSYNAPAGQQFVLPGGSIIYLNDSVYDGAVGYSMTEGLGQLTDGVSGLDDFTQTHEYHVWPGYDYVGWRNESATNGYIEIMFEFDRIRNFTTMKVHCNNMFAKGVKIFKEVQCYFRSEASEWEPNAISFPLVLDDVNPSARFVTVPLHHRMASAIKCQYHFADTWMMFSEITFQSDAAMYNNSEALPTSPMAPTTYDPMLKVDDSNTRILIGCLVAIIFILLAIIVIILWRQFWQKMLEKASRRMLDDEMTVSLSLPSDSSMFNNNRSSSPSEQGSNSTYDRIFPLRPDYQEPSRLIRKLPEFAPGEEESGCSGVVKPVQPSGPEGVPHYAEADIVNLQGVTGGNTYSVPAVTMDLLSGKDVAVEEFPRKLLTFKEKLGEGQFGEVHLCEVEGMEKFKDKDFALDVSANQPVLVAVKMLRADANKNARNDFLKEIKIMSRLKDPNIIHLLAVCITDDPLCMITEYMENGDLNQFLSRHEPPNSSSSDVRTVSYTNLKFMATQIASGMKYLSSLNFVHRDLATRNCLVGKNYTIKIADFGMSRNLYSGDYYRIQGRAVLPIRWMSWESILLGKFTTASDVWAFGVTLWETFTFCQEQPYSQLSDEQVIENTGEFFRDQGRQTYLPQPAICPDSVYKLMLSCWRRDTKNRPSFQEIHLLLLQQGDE
Description: as §1

T2 sequence (P32298 whole entry): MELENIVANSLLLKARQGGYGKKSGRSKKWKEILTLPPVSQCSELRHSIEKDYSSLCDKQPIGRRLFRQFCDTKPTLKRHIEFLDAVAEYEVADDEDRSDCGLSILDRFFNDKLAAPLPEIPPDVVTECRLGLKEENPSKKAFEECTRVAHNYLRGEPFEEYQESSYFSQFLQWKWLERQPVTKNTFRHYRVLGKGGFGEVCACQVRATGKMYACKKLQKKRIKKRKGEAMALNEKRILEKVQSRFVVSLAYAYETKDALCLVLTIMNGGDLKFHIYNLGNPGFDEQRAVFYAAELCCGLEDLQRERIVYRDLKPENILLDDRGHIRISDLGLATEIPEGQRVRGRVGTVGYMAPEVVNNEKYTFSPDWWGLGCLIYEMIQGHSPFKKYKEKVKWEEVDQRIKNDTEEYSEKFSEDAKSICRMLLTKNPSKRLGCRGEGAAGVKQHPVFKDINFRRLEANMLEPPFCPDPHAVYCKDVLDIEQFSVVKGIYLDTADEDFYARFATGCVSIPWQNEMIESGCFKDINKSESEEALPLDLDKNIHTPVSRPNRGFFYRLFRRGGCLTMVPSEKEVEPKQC
T5 sequence (Q9NQU5 whole entry): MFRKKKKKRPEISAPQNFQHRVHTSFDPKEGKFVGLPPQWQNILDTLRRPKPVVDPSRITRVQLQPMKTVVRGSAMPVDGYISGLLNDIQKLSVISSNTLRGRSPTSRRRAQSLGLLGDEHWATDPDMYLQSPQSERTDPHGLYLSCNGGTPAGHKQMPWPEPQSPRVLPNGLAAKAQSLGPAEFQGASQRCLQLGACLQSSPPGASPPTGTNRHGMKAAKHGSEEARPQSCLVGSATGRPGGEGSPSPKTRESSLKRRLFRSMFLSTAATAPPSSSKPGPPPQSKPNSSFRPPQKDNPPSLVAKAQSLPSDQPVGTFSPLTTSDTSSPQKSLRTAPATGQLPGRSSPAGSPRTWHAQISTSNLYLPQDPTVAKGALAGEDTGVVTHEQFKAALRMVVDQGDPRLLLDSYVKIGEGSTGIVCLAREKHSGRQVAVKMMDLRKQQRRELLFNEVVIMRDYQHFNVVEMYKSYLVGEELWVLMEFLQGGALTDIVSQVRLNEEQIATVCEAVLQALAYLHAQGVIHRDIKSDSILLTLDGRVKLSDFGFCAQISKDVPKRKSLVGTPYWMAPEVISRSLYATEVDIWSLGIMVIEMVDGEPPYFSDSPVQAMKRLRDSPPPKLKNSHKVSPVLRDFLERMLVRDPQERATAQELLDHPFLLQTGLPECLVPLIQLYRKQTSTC
T3 sequence (Q02779 whole entry): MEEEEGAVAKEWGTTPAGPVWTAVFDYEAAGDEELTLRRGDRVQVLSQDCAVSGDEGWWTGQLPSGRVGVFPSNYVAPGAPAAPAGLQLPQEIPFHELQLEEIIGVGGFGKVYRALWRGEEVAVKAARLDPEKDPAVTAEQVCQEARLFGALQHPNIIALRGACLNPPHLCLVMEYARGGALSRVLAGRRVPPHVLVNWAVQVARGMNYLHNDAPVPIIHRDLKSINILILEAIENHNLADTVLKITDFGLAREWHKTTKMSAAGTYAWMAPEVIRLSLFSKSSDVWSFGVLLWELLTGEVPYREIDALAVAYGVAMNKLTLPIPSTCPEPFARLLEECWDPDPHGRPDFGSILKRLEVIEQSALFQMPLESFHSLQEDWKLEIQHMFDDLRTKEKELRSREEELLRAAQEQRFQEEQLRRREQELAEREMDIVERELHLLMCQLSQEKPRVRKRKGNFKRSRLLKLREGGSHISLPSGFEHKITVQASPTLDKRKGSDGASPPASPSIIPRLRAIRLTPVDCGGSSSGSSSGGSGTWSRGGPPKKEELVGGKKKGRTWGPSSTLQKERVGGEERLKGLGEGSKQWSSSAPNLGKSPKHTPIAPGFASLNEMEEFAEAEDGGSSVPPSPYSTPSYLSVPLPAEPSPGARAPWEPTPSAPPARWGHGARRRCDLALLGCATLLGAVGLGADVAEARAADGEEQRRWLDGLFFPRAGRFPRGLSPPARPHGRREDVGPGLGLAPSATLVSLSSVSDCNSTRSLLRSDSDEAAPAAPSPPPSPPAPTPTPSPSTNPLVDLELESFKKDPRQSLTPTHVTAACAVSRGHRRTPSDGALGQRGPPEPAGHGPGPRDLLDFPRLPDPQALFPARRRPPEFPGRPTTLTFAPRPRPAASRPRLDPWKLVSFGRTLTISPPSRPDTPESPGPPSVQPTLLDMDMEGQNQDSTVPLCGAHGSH

Structure (SMILES)	Residual activity ([1]; 1.0E-05 M)	Residual activity ([1]; 1.0E-06 M)	Residual activity ([2]; 1.0E-05 M)	Residual activity ([2]; 1.0E-06 M)	Residual activity ([3]; 1.0E-05 M)	Residual activity ([3]; 1.0E-06 M)	Residual activity ([4]; 1.0E-05 M)	Residual activity ([4]; 1.0E-06 M)	Residual activity ([5]; 1.0E-05 M)	Residual activity ([5]; 1.0E-06 M)	Residual activity ([6]; 1.0E-05 M)	Residual activity ([6]; 1.0E-06 M)	Residual activity ([7]; 1.0E-05 M)	Residual activity ([7]; 1.0E-06 M)	Residual activity ([8]; 1.0E-05 M)	Residual activity ([8]; 1.0E-06 M)
O=C(Nc1ccc(F)c(Nc2ccc3c(c2)CCCCC3=O)c1)c1cccc(F)c1 [Compound 109]	92 % of control	95 % of control	130 % of control	103 % of control	91 % of control	96 % of control	95 % of control	98 % of control	90 % of control	99 % of control	94 % of control	95 % of control	88 % of control	103 % of control	64 % of control	93 % of control
O=C(Cc1ccccc1)Nc1ccc(F)c(Nc2ccc3c(c2)CCCCC3=O)c1 [Compound 100]	101 % of control	103 % of control	86 % of control	116 % of control	84 % of control	106 % of control	93 % of control	102 % of control	98 % of control	101 % of control	89 % of control	105 % of control	98 % of control	105 % of control	71 % of control	94 % of control
